Test results taken from article PMC4929710, “Specificity and mechanism of action of alpha-helical membrane-active peptides interacting with model and biological membranes by single-molecule force spectroscopy” (Scientific Reports, 2016).

Legend:
S. aureus ATCC25923 = format: cell-based; details: ATCC25923, 24 h
Method: (§1) Then, 10 μL of peptides was added. […] All assays were repeated in triplicate.

E. coli ATCC25922 = format: cell-based; details: ATCC25922, 24 h
Method: as §1

S. epidermidis ATCC12228 = format: cell-based; details: ATCC12228, 24 h
Method: as §1

[1] = tested on: gram-negative bacteria (P. aeruginosa and E. coli); format: cell-based
Method: as §1

P. aeruginosa ATCC27853 = format: cell-based; details: ATCC27853, 24 h
Method: as §1

[2] = Circular dichroism (CD) analysis; format: physicochemical; details: for α-Helix (%) 50% TFE / α-Helix (%) Benign: relative to molar ellipticity of A12L/A20L in 50% TFE; for [θ]222 Benign / [θ]222 50% TFE: CD, 25 °C; for [θ]222 Benign: benign buffer pH 7.0, 100 mM KCl, 50 mM KH2PO4/K2HPO4; for [θ]222 50% TFE: benign buffer:TFE 1:1 vol/vol; for α-Helix (%) Benign: benign buffer
Method: The secondary structures of the peptides were determined using a Jasco J-810 CD spectrometer (Jasco, Easton, MD) at 25 °C [12]. The benign buffer (pH 7.0, 100 mM KCl, 50 mM KH2PO4/K2HPO4) was used to simulate the hydrophilic environment and 50% 2,2,2-trifluoroethanol (TFE) (benign buffer: TFE = 1: 1, vol/vol) was used to simulate the hydrophobic environment. The mean residue molar ellipticities at 222 nm, [θ]222 (degree·cm^2·dmol^−1), were used to calculate the relative helical contents of MAPs[24].
CD spectroscopy illustrated the secondary structure of peptide analogs under benign environment and 50% TFE to mimic the hydrophobic conditions of cell membranes. CD results are shown in Supplementary Table S2 and Fig. S1. […] The helical content (%) of peptides in two groups relative to the molar ellipticity value of the peptide A12L/A20L in 50% TFE. In addition, except the peptide of V13E, the relative helicity of the peptides are in the same order of V13L>V13A>V13S>V13K and A12L/A20L>A20L>L6A>L6A/L17A in the benign and hydrophobic environments and also in the same order with the peptide hydrophobicity.

PC/Chol (8:1 w/w) LUVs = test: Tryptophan fluorescence with LUVs; format: binding; details: PC/Chol (8:1 w/w) LUVs versus HEPES buffer, 25 °C
Text: (§2) In order to investigate the interaction between peptides and difference types of cell membranes, three different LUVs were used to mimic a prokaryotic cell membrane (PC/PG), a normal eukaryotic cell membrane (PC/Chol), and a cancer cell membrane (PC/SM/PE/PS/Chol). Tryptophan residue in the peptide sequence was used as a fluorescent probe to examine the interaction of peptides with model membranes. […] For example, in the PC/PG (7:3 w/w) anionic prokaryotic mimicking model membrane, peptides V13L and A12L/A20L had the strongest hydrophobicity with blue shift values of approximately 37 nm and 38 nm, respectively. Conversely, peptide V13E with a negative charge of glutamic acid residue, and peptide L6A/L17A with the lowest hydrophobicity had blue shift values of approximately 18 nm and 17 nm, respectively. […] In addition, within PC/SM/PE/PS/Chol (4.35:4.35:1:0.3:1 w/w) as a cancer-mimicking model membrane, the same results could be obtained in that peptide hydrophobicity correlates with anticancer activity and the blue shift values of peptides.
(§3) In accordance with previously described methods, LUVs were prepared with PC/PG (7:3 w/w), PC/Chol (8:1 w/w), and PC/SM/PE/PS/Chol (4.35:4.35:1:0.3:1 w/w) to mimic prokaryotic cell, […], membranes, respectively. Lipids using the freeze-thaw method as described previously, followed by extrusion through […] double-stacked nuclepore filters using an Mini-Extruder (Avanti Polar Lipids, Inc.)[11][27].
(§4) Three kinds of LUVs were prepared and cultured in HEPES buffer (pH 7.4, 10 mM HEPES, 150 mM NaCl) and the molar concentration was adjusted to 100 μM. A total of 14 μL of 100 μM MAPs was mixed with 686 μL of 100 μM liposomes at 25 °C for 10 min. A Shimadzu RF-5301PC, (excitation wavelength of […], emission wavelength of 300–450 nm) was used to measure the tryptophan fluorescence. Potassium iodide (KI) as a quencher was added to the previous reaction system for a final concentration of 0.02–0.08 M, respectively. The experimental data were plotted according to the Stern–Volmer equation F0/F = 1 + Ksv[Q], where F0 and F are the fluorescence intensity in the absence or presence of a quencher at concentration [Q], respectively, and Ksv is the Stern–Volmer quenching constant.

[3] = tested on: PC/SM/PE/PS/Chol (4.35:4.35:1:0.3:1 w/w) LUVs; test: Tryptophan fluorescence with LUVs; format: binding; details: PC/SM/PE/PS/Chol (4.35:4.35:1:0.3:1 w/w) LUVs versus HEPES buffer, 25 °C
Text: as §2, §3, §4

PC/PG (7:3 w/w) LUVs = test: Tryptophan fluorescence with LUVs; format: binding; details: PC/PG (7:3 w/w) LUVs versus HEPES buffer, 25 °C
Text: as §2, §3, §4

SGC7901 cells = format: cell-based, human; details: 24 h
Method: (§5) The MTT cell proliferation assay was used to investigate the anticancer activity and cytotoxicity of MAPs against cancer cell lines (HeLa, A549, SGC-7901, and B16) and normal cells (3T3-L1), respectively. Cells (5 × 10^3) were seeded in 96-well plates and incubated overnight. The peptide samples were then added to cells with final concentrations ranging from 1 μM to 125 μM. After 24 h, 20 μL of 5 mg/mL MTT solution in PBS was added to the cells and treated for 4 h at 37 °C. The formazan crystals were dissolved by 150 μL of dimethyl sulfoxide (DMSO). Finally, the absorbance was determined at 492 nm. The results were expressed as IC50, representing the concentration at which cell viability was reduced by 50%. All assays were repeated in triplicate.

A549 cells = format: cell-based, human; details: 24 h
Method: as §5

HeLa cells = format: cell-based, human; details: 24 h
Method: as §5

[4] = RP-HPLC retention time (peptide hydrophobicity); format: physicochemical; details: used as measure of peptide hydrophobicity
Method: All peptides were synthesized by solid-phase peptide synthesis using Fmoc (9-fluorenyl-methoxycar-bonyl) chemistry and rink amide 4-methylbenzhydrylamine resin (MBHA resin; 0.8 mmol/g), as described previously. The crude peptides were purified on a LC-6A preparative reversed-phase high performance liquid chromatography (RP-HPLC, Shimadzu, Kyoto, Japan) using a Zorbax 300 SB-C8 column (250 × 9.4 mm inner diameter, […] particle size, 300 Å pore size), as described previously. The purity of the peptides was characterized by analytical RP-HPLC, mass spectrometry, and amino acid analysis.

B16 cells = format: cell-based, mouse; details: 24 h
Method: as §5

3T3-L1 cells = format: cell-based, mouse; details: 24 h
Method: as §5

[5] = tested on: gram-positive bacteria (S. aureus and S. epidermidis); format: cell-based
Method: as §1

Substance	G+ MIC S. aureus ATCC25923 (S. aureus ATCC25923)	G− MIC E. coli ATCC25922 (E. coli ATCC25922)	G+ MIC S. epidermidis ATCC12228 (S. epidermidis ATCC12228)	G− MIC GM [1]	G− MIC P. aeruginosa ATCC27853 (P. aeruginosa ATCC27853)	α-Helix (%) 50% TFE [2]	[θ]222 Benign [2]	[θ]222 50% TFE [2]	α-Helix (%) Benign [2]	PC/Chol Blue shift (PC/Chol (8:1 w/w) LUVs)	PC/SM/PE/PS/Chol Blueshift [3]	PC/PG Blue shift (PC/PG (7:3 w/w) LUVs)	IC50 (SGC7901 cells)	IC50 (A549 cells)	IC50 (HeLa cells)	tR (RP-HPLC retention time) [4]	IC50 (B16 cells)	IC50 (3T3-L1 cells)	G+ MIC GM [5]
Ac-KWKSFAKTFKSAKKTVLHTALKAISS-NH2 [Peptide L6A]	>125 µM	64 µM	64 µM	89.44 µM	125 µM	70.67%	−3836.18 degree·cm^2·dmol^−1	−30626.20 degree·cm^2·dmol^−1	8.85%	1 nm	23 nm	19 nm	78.9 µM	92.4 µM	94.7 µM	36.053 min	74.7 µM	87.3 µM	
Ac-KWKSFLKTFKSAAKTVLHTALKAISS-NH2 [Peptide V13A]	8 µM	4 µM	2 µM	5.66 µM	8 µM	79.68%	−6524.79 degree·cm^2·dmol^−1	−34527.20 degree·cm^2·dmol^−1	15.06%	4 nm		34 nm	2.33 µM	6.83 µM	5.52 µM	47.337 min	3.62 µM	6.79 µM	4 µM
Ac-KWKSFLKTFKSASKTVLHTALKAISS-NH2 [Peptide V13S]	8 µM	8 µM	4 µM	8 µM	8 µM	71.30%	−4400.44 degree·cm^2·dmol^−1	−30899.20 degree·cm^2·dmol^−1	10.15%	3 nm		27 nm	4.27 µM	12.1 µM	12.2 µM	43.038 min	5.61 µM	17 µM	5.66 µM
